Test results: patent US20250000896A1, “Xenon Gas for Use in the Treatment of Gliomas” (Universität Heidelberg, priority 2021, published 2025)

Assays:
Format in all cases: cell-based
U251 glioma cells = assay: Colony formation assay (CFA) with U251 glioma cells after irradiation; conditions: 50% Xe for 60 min after irradiation and/or 25 μM memantine, colonies counted after 11 days
Text: (§1) In radiobiological research, colony formation assay (CFA) represents an established method to evaluate the in-vitro-effects of radiation treatment (RT) alone or in combination with additional substances on cell survival and reproduction capability. To provide a method for investigation of modulating properties mediated by gaseous agents in combination with ionizing radiation treatment, a system to combine CFA with gas exposure before, during or after radiation treatment was designed. Subsequently CFA were performed with established glioma cell lines U87MG and U251, as well as cervical cancer-derived cell line HeLa investigating the effect of xenon gas exposure on cell survival after radiation treatment. Expression of AMPAR and NMDAR subunits was tested by immunofluorescence staining. In vitro colony formation assay (CFA) comparing surviving fractions of irradiated U87MG cells and U251 cells exposed to 50% Xe and/or treated with 25 μM of memantine to a control group were performed. Additionally, a CFA comparing surviving fractions of irradiated HeLa cells exposed to 50% Xe to a control group was implemented. CFA were carried out in triplets of T25-flasks for each irradiation dose of 0, 2, 4, 6 and 8 Gy in three (U87MG and HeLa) or four (U251) independent repetitions. U87MG and HeLa cells were cultured in Dulbecco's modified eagle's medium (DMEM; U87: Biochrom AG, Berlin, Germany; HeLa: Thermo Fisher Scientific, Waltham, US) and U251 cells were cultured in Gibco Roswell Park Memorial Institute (RPMI) 1640 medium+GlutaMAX™ (Thermo Fisher Scientific, Waltham, US). Cells were stored in an incubator (ambient air with additional 5% CO2) and split regularly before confluence. In preparation of CFA, cells were dissolved, counted, and distributed into T25-flasks starting with 1000 cells (U87MG), 100 cells (U251), or 200 cells (HeLa) per flask for non-irradiated groups increasing the cell count with irradiation dose to 1000, 2000, 5000, and 10.000 cells (U87MG), 200, 600, 2000, and 5000 cells (U251), or 400, 800, 2000, and 4000 cells (HeLa), respectively. Cells were allowed to attach for 14 to 16 h (U87MG), for 4 h (U251), or for 5.5 h (HeLa) and 108 μl of either memantine-hydrochloride 0.25 mg/ml (Sigma-Aldrich Corp., St. Louis, USA) or distilled water as placebo were added 60 min at U87MG and 90 min at U251 and HeLa prior to irradiation, resulting in 25 μM memantine-hydrochloride per flask. For irradiation, 15 flasks (5 triplets, each for 0, 2, 4, 6, 8 Gy) were placed alongside the margin of eight acrylic glass plates (thickness 1.0 cm) with two plates further added on top to balance secondary electrons. Vertical position to the gantry of a conventional linear accelerator (Elekta Synergy, Elekta AB, Stockholm, Sweden) was allocated by wall-mounted lasers marking the center of the flasks' caps membrane, horizontal position was validated by opening the linear accelerator's light field (32.0×32.0 cm) and by positioning the plates centrally inside the field. The triplet from the 0 Gy dose-group was removed immediately after placement (sham-irradiation) and exchanged with dummy T25-flasks filled with water. After delivery of 181.2 MU of 6 MeV photons, equivalent to an effective dose of 2 Gy, the 2 Gy-triplet was removed and replaced by dummy flasks. This process was repeated until a cumulative dose of 8 Gy for the last triplet was reached. Gas exposure was performed after the radiation treatment described above. The flasks were exposed to a preformed gas mixture for 60 minutes containing either 75% Xe, 20% O2 and 5% CO2 for the xenon group or a mixture with the 75% Xe-proportion replaced by nitrogen (N2) for the memantine group and the control group. […] After exposure, the flasks membrane caps were sealed with custom PVC-plugs and stored in a heat cabinet for 24 hours. Finally, the membrane caps' plugs were removed and the flasks were transferred into the 5% CO2-incubator remaining untouched for 13 days (U87MG), 10 days (U251), or 10 days (HeLa). […]

U87MG glioma cells = assay: Colony formation assay (CFA) with U87MG glioma cells after irradiation; conditions: for mean survival fraction in relation to the control group: 50% Xe for 60 min after irradiation and/or 25 μM memantine, colonies counted after 14 days
Text: as §1

[1] = system: HeLa cervical cancer cells; assay: Colony formation assay (CFA) with HeLa cervical cancer cells after irradiation; conditions: for mean survival fraction in relation to the control group: 50% Xe for 60 min after irradiation, colonies counted after 11 days
Text: In radiobiological research, colony formation assay (CFA) represents an established method to evaluate the in-vitro-effects of radiation treatment (RT) alone or in combination with additional substances on cell survival and reproduction capability.
To provide a method for investigation of modulating properties mediated by gaseous agents in combination with ionizing radiation treatment, a system to combine CFA with gas exposure before, during or after radiation treatment was designed. Subsequently CFA were performed with established glioma cell lines U87MG and U251, as well as cervical cancer-derived cell line HeLa investigating the effect of xenon gas exposure on cell survival after radiation treatment. Expression of AMPAR and NMDAR subunits was tested by immunofluorescence staining.
In vitro colony formation assay (CFA) comparing surviving fractions of irradiated U87MG cells and U251 cells exposed to 50% Xe and/or treated with 25 μM of memantine to a control group were performed. Additionally, a CFA comparing surviving fractions of irradiated HeLa cells exposed to 50% Xe to a control group was implemented. CFA were carried out in triplets of T25-flasks for each irradiation dose of 0, 2, 4, 6 and 8 Gy in three (U87MG and HeLa) or four (U251) independent repetitions.
U87MG and HeLa cells were cultured in Dulbecco's modified eagle's medium (DMEM; U87: Biochrom AG, Berlin, Germany; HeLa: Thermo Fisher Scientific, Waltham, US) and U251 cells were cultured in Gibco Roswell Park Memorial Institute (RPMI) 1640 medium+GlutaMAX™ (Thermo Fisher Scientific, Waltham, US). Cells were stored in an incubator (ambient air with additional 5% CO2) and split regularly before confluence. In preparation of CFA, cells were dissolved, counted, and distributed into T25-flasks starting with 1000 cells (U87MG), 100 cells (U251), or 200 cells (HeLa) per flask for non-irradiated groups increasing the cell count with irradiation dose to 1000, 2000, 5000, and 10.000 cells (U87MG), 200, 600, 2000, and 5000 cells (U251), or 400, 800, 2000, and 4000 cells (HeLa), respectively. Cells were allowed to attach for 14 to 16 h (U87MG), for 4 h (U251), or for 5.5 h (HeLa) and 108 μl of either memantine-hydrochloride 0.25 mg/ml (Sigma-Aldrich Corp., St. Louis, USA) or distilled water as placebo were added 60 min at U87MG and 90 min at U251 and HeLa prior to irradiation, resulting in 25 μM memantine-hydrochloride per flask.
For irradiation, 15 flasks (5 triplets, each for 0, 2, 4, 6, 8 Gy) were placed alongside the margin of eight acrylic glass plates (thickness 1.0 cm) with two plates further added on top to balance secondary electrons. Vertical position to the gantry of a conventional linear accelerator (Elekta Synergy, Elekta AB, Stockholm, Sweden) was allocated by wall-mounted lasers marking the center of the flasks' caps membrane, horizontal position was validated by opening the linear accelerator's light field (32.0×32.0 cm) and by positioning the plates centrally inside the field. The triplet from the 0 Gy dose-group was removed immediately after placement (sham-irradiation) and exchanged with dummy T25-flasks filled with water. After delivery of 181.2 MU of 6 MeV photons, equivalent to an effective dose of 2 Gy, the 2 Gy-triplet was removed and replaced by dummy flasks. This process was repeated until a cumulative dose of 8 Gy for the last triplet was reached.
Gas exposure was performed after the radiation treatment described above. The flasks were exposed to a preformed gas mixture for 60 minutes containing either 75% Xe, 20% O2 and 5% CO2 for the xenon group or a mixture with the 75% Xe-proportion replaced by nitrogen (N2) for the memantine group and the control group. […] After exposure, the flasks membrane caps were sealed with custom PVC-plugs and stored in a heat cabinet for 24 hours. Finally, the membrane caps' plugs were removed and the flasks were transferred into the 5% CO2-incubator remaining untouched for 13 days (U87MG), 10 days (U251), or 10 days (HeLa). […]

| Structure (SMILES) | mean survival fraction in relation to the control group (U251 glioma cells; radiation dose 0 Gy (sham)) | mean survival fraction in relation to the control group (U251 glioma cells; radiation dose 2 Gy) | mean survival fraction in relation to the control group (U251 glioma cells; radiation dose 4 Gy) | mean survival fraction in relation to the control group (U251 glioma cells; radiation dose 6 Gy) | mean survival fraction in relation to the control group (U251 glioma cells; radiation dose 8 Gy) | difference in survival to the groups without added memantine (U87MG glioma cells; 25 μM memantine, 0 to 8 Gy, t-test) | mean survival fraction in relation to the control group (U87MG glioma cells; radiation dose 0 Gy (sham)) | mean survival fraction in relation to the control group (U87MG glioma cells; radiation dose 2 Gy) | mean survival fraction in relation to the control group (U87MG glioma cells; radiation dose 4 Gy) | mean survival fraction in relation to the control group (U87MG glioma cells; radiation dose 6 Gy) | mean survival fraction in relation to the control group (U87MG glioma cells; radiation dose 8 Gy) | impact of xenon exposure after irradiation on HeLa cell survival ([1]; 50% Xe after irradiation, except at a very high radiation dose level) | mean survival fraction in relation to the control group ([1]; radiation dose 0 Gy (sham)) | mean survival fraction in relation to the control group ([1]; radiation dose 2 Gy) | mean survival fraction in relation to the control group ([1]; radiation dose 4 Gy) | mean survival fraction in relation to the control group ([1]; radiation dose 6 Gy) | mean survival fraction in relation to the control group ([1]; radiation dose 8 Gy) |
| --- | --- | --- | --- | --- | --- | --- | --- | --- | --- | --- | --- | --- | --- | --- | --- | --- | --- |
| CC12CC3CC(C)(C1)CC(N)(C3)C2 [memantine] | 72.3% | 34.1% | 11.9% | 3.8% | 1.0% | no significant differences | 93.8% | 46.8% | 28.5% | 15.9% | 8.0% |  |  |  |  |  |  |
| [Xe] [xenon] | 78.7% | 37.5% | 14.6% | 4.2% | 1.0% |  | 94.2% | 41.5% | 25.0% | 10.3% | 4.7% | no impact | 114.7% | 71.1% | 23.5% | 7.1% | 2.0% |
